Results reported in patent US20250346634A1, “CYCLIC PEPTIDES FOR TARGETING EPIDERMAL GROWTH FACTOR RECEPTOR AND MUTATIONS THEREOF FOR DRUG DELIVERY” (priority 2022, published 2025).
Bridge positions count the residues as written; N and C are the ends. Peptide text beside a SMILES is read from it. * marks the point of attachment. FITC = O=C1OC2(c3ccc(O)cc3Oc3cc(O)ccc32)c2ccc(NC(=S)*)cc21; GABA = NCCCC(=O)O

How the values were obtained:
[1] = test system: H1299, DKMG and K562 cells; assay: Flow cytometry binding of peptide-FITC conjugates; assay type: cell-based; settings: 2.5 μM FITC-labeled peptide
Text: This concentration was chosen based on preliminary dose dependence study.

[2] = test system: EGFR+ve cells (H1299, DKMG) versus K562 cells; assay: Flow cytometry internalization of peptide-FITC conjugates; assay type: cell-based; settings: 2.5 μM FITC-labeled peptide
Text: Analysis was done with FACS cell analyzer.

MCF-10A cells = settings: FITC-labeled peptides, flow cytometry
Experimental: (§1) Cells with 80-90% confluence were incubated with 2.5 μM FITC-conjugated peptides in RPMI-5% FBS for 1 h at 37° C. Cells were scrapped from the culture flask and washed twice with 2 ml FCSB. Cells were analyzed as previously described Internalization of peptide-FITC conjugates.
(§2) Cells were cultured overnight in 6-well plates under 80-90% confluence, the medium was replaced with 1 ml of the fresh medium with 5% FBS that contained 2.5 μM FITC-conjugated peptides. The plates were incubated for 1, 2, or 3 h at 37° C. After incubation, the cells were collected with trypsin, washed twice with FCSB, and resuspended in 200 μl of FCSB. Analysis was done with FACS cell analyzer.
(§3) Targeting specificity of FITC-labeled P4-P6, P8, and P9 peptides was investigated on three cell lines, which were not used in biopanning: kidney HEK-293 and breast MCF-10A normal cells, and breast cancer MDA-435 cells. To verify EGFR WT expression on these cell lines, the inventors stained the cells with APC-labeled monoclonal anti-human EGFR antibody followed by a flow cytometry analysis.
(§4) The interaction of the FITC labeled P4 P6, P8, and P9 with these cell lines was analyzed by flow cytometry.

[3] = test system: high-EGFR-expressing MDA-435 cells; assay: Target specificity by flow cytometry, MDA-435; assay type: cell-based; settings: FITC-labeled peptides
Experimental: as §1, §2, §3, §4

[4] = test system: DKMG cells line expressing both EGFR+ve and EGFRvIII mutation; settings: 2.5 μM FITC-labeled peptide
Experimental: as §2

DKMG cells = assay: Confocal microscopy, DKMG; assay type: cell-based; settings: 25 μM; for green FITC signal: after 3 hours; for fluorescence intensity: time zero
Experimental: (§5) H1299, DKMG and HEK-293 cells were seeded in 12-well glass bottom black plates in concentrations of 5.0×10^4, 1.0×10^5, and 2.5×10^4 cells/well, respectively. The cells were cultured in complete growth medium at 37° C. under 5% CO2 for 24 h. After incubation, the medium was removed, the cells were twice washed with PBS Ca^2+Mg^2+, and new fresh medium (0.5 ml) contained 25 μM of FITC labeled P6 or P9 peptides was added. The stained cells were incubated at 37° C. under 5% CO2 for 0 h and 3 h, washed twice with PBS, and stained with Hoechst 33258 ([…], 0.5 ml, 37° C., 5% CO2) for 10 min. The cells were twice washed with PBS and fixed with 4% paraformaldehyde (PFA). Fluorescence images were then recorded at the magnification of ×200 with a Zeiss LSM700 confocal laser microscope.
(§6) To get additional confirmation data on the specificity of the FITC labeled P6 and P9 peptides towards EGFR H1299 lung cancer and […] DKMG glioblastoma cell lines compared to EGFR−ve HEK-293 normal cells, the inventors employed confocal scanning microscopy. The cells were incubated with 25 μM FITC-labeled P6 and P9, the cell nuclear were stained with […], the cells were fixed with 4% paraformaldehyde, and captured immediately after addition and 3 h later. […] A clear correlation of the green FITC signal with the cell type was established.

H1299 cells = assay: Confocal microscopy, H1299; assay type: cell-based; settings: 25 μM
Experimental: as §5, §6

HEK-293 cells = assay: Confocal microscopy, HEK-293; assay type: cell-based; settings: 25 μM, after 3 hours
Experimental: as §5, §6

| Compound | binding (flow cytometry) [1] | internalization (flow cytometry) [2] | binding to MCF-10A cells (MCF-10A cells) | binding to MDA-435 cells [3] | internalization activity to DKMG [4] | green FITC signal (DKMG cells) | fluorescence intensity (DKMG cells) | internalization into MDA-435 cells [3] | green FITC signal (H1299 cells; after 3 hours) | fluorescence intensity (H1299 cells; time zero) | green FITC signal (HEK-293 cells) |
| --- | --- | --- | --- | --- | --- | --- | --- | --- | --- | --- | --- |
| CC(C)C[C@@H]1NC(=O)[C@H](C)NC(=O)[C@H](CO)NC(=O)[C@@H](NC(=O)CCCNC(=S)Nc2ccc3c(c2)C(=O)OC32c3ccc(O)cc3Oc3cc(O)ccc32)CSSC[C@@H](C(N)=O)NC(=O)[C@H](Cc2cnc[nH]2)NC(=O)[C@H](CO)NC(=O)[C@H](C)NC(=O)[C@H](Cc2c[nH]c3ccccc23)NC1=O [FITC-labeled P8] ({FITC-GABA}-CSALWASHC-NH2; disulfide 1-9) | bind to H1299 and DKMG selectively but not to K562 cells | internalized only into to EGFR+ve cells | noticeable binding | noticeable binding |  |  |  |  |  |  |  |
| CSCC[C@@H]1NC(=O)[C@H](C)NC(=O)[C@H](CC(N)=O)NC(=O)[C@H](C(C)C)NC(=O)[C@@H](NC(=O)CCCNC(=S)Nc2ccc3c(c2)C(=O)OC32c3ccc(O)cc3Oc3cc(O)ccc32)CSSC[C@@H](C(N)=O)NC(=O)[C@H](Cc2ccc(O)cc2)NC(=O)[C@H](CO)NC(=O)[C@H](CCC(N)=O)NC1=O [FITC-labeled P9] ({FITC-GABA}-CVNAMQSYC-NH2; disulfide 1-9) | bind to H1299 and DKMG selectively but not to K562 cells | internalized only into to EGFR+ve cells |  |  | higher internalization activity | significantly increased after 3 hours | pronounced emission | pronounced internalization |  |  |  |
| CC[C@H](C)[C@@H]1NC(=O)[C@H](Cc2ccc(O)cc2)NC(=O)[C@H](CO)NC(=O)CNC(=O)[C@@H]2CCCN2C(=O)[C@H](C(C)C)NC(=O)[C@H](Cc2cnc[nH]2)NC(=O)[C@@H](NC(=O)CCCNC(=S)Nc2ccc3c(c2)C(=O)OC32c3ccc(O)cc3Oc3cc(O)ccc32)CSSC[C@@H](C(N)=O)NC1=O [FITC-labeled P6] ({FITC-GABA}-CHVPGSYIC-NH2; disulfide 1-9) |  | internalized only into to EGFR+ve cells |  |  |  | strong signal | not detectable | pronounced internalization | strong signal | not detectable | low-intensive signal |
